This is an account of results in US9308238B2, “Compositions and methods for modulating EMT and uses thereof” (Whitehead Institute for Biomedical Research, priority 2010, dated 2016).

Test [1] deals with RAS-transformed HMLE cells. The test is described as follows: Lung metastasis of RAS-transformed treated HMLE cells from mammary fat pads. In kind it is in vivo. The note with it: cells implanted into mammary fat pads of mice. The procedure:
FIGS. 5A-5H. Concomitant stimulation of Wnt and TGF-beta pathways allows HMLE^24+ cells to enter into a mesenchymal and SC-like state. (FIG. 5A) RT-PCR: N-Cadherin, Zeb1 and Zeb2, L32 was loading control, n=3. Prior RNA isolation, HMLE^24+-shGFP or -shSFRP1 (stable knockdown of SFRP1, FIG. 12A) cells were treated for 3 days with daily doses of indicated factors: anti-DKK1 antibody (10 μg/ml), anti-E-Cadherin antibody (1 μg/ml), TGF-beta 1 (5 ng/ml), Wnt5a (250 ng/ml), (FIG. 5B) Brightfield microscopy: images of control, TGF-beta- and iEMT-cocktail treated HMLE^24+ cells after 14 days of treatment as indicated (see also FIG. 12D). (FIG. 5C) RT-PCR: Zeb1, Zeb2, E-Cadherin and N-Cadherin, L32 was loading control, n=3. After 14 day treatment, cells were expanded in absence of further stimulation for 4 passages. […] (FIG. 5G) Lung metastasis: cells expanded for 8 passages after cessation of treatment as described in (C) were transformed with RAS; 1.0×10^5 cells were injected into the mammary fat pads of mice; GFP-labeled metastases on the surface of the lungs were quantified; *control vs. all other groups, p<0.05, n=5 mice/group. […]
Animal studies. […] Lung surface metastases were counted using a fluorescent microscope within 3 hr of specimen isolation.

The next test concerns luminal MECs. Briefly: Growth curve of luminal cells in monolayers. In kind it is cell-based, human. The note with it: luminal cultures. As for the experimental part:
FIGS. 14A-14D. Modulation of migratory and self-renewal abilities in basal and luminal MECs. (FIG. 14A) Growth curve: basal cells treated every 48 hrs with indicated factors, TGF-beta-type 1 receptor inhibitors A83-01 and SB431542 (10 μM), SFRP1 (1 μg/ml); cells were counted at indicated time points, n=2. (FIG. 14B) Growth curve: luminal cells treated every 48 hrs with indicated factors, TGF-beta 1 (5 ng/ml), Wnt5a (250 ng/ml), anti-DKK1-(10 μg/ml) and anti-E-Cadherin antibodies (1 μg/ml) or a combination of all factors (iEMT-II); cells were counted at indicated time points, n=2, (FIG. 14C) Microscopy images of basal cells treated as described in (A), at 4 days/before first passage. (FIG. 14D) Microscopy images of luminal cells treated as described in (B), at 4 days/before first passage.
Primary mammary epithelial cell culture. Single-cell suspensions of primary human mammary epithelial cells (MECs) were generated from reduction mammoplasties of pre-menopausal women as previously described (Stingl et al., 2001), Data from three donors are included in this study. Primary MECs were cultured on collagen I-coated plates (Millipore) in MEGM medium (Lonza) supplemented with 1% Fetal Bovine Serum in a humidified 4% O2, 5% CO2, atmosphere.

With “TGF-beta 1: recombinant TGF-beta 1 protein, used at 5 ng/ml”, the “lung metastatic foci of RAS-transformed treated cells” value in test [1] was “only weakly metastatic”. For the same substance, in the test with luminal MECs, the proliferation in monolayers result was “significantly reduced”.
